US20210047304A1, “Bromodomain Inhibitors” (AbbVie Inc., priority 2016, published 2021)
pKi: −log10 of the molar value.

biological target: BRD4 (BDI_K57-E168) (Homo sapiens, UniProt O60885); experiment: TR-FRET bromodomain binding assay, BRD4 BDI
Procedure: A time-resolved fluorescence resonance energy transfer (TR-FRET) assay was used to determine the affinities of compounds of the Examples listed in Table 1 for each bromodomain of BRD4. […] An Alexa647-labeled BET-inhibitor was used as the fluorescent probe in the assay.
(§1) Compound dilution series were prepared in DMSO via an approximately 3-fold serial dilution. Compound dilutions were added directly into white, low-volume assay plates (Perkin Elmer Proxiplate 384 Plus #6008280) using a Labcyte Echo in conjunction with Labcyte Access and Thermo Multidrop CombinL robotics. Compounds were then suspended in eight microliters (μL) of assay buffer (20 mM Sodium Phosphate, pH 6.0, 50 mM NaCl, 1 mM Ethylenediaminetetraacetic acid disodium salt dihydrate, 0.01% Triton X-100, 1 mM DL-Dithiothreitol) containing His-tagged bromodomain, Europium-conjugated anti-His antibody (Invitrogen PV5596) and Alexa-647-conjugated probe.
After a one-hour equilibration at room temperature, TR-FRET ratios were determined using an Envision multilabel plate reader (Ex 340, Em 495/520).
TR-FRET data were normalized to the means of 24 no-compound controls (“high”) and 8 controls containing 1 μM un-labeled probe (“low”). Percent inhibition was plotted as a function of compound concentration and the data were fit with the 4 parameter logistic equation to obtain IC50s. Inhibition constants (Ki) were calculated from the IC50s, probe Kd and probe concentration.
Compound dilution series for Compounds A-E were prepared in DMSO via an approximately 3-fold serial dilution from 0.47 mM to 7.8 nM.
as §1, with “Compound” for “Compound dilution series were prepared in DMSO via an approximately 3-fold serial dilution. Compound”
TR-FRET data were normalized to the means of 24 no-compound controls (“high”) and 8 controls containing 1 μM un-labeled probe (“low”). Percent inhibition was plotted as a function of compound concentration and the data were fit with the 4 parameter logistic equation to obtain IC50s. Inhibition constants (Ki) were calculated from the IC50s, probe Kd and probe concentration. Typical Z′ values were between 0.65 and 0.75. The minimum significant ratio was determined to evaluate assay reproducibility (Eastwood et al., (2006) J Biomol Screen, 11: 253-261). The MSR was determined to be 2.03 for BDI and 1.93 for BDII, and a moving MSR (last six run MSR overtime) for both BDI and BDII was typically <3.

Row | pKi | Structure (SMILES)
1 | 5.48 | Cc1cc(F)cc(C)c1Oc1ccc(C(C)(C)O)cc1-c1cn(C)c(=O)cc1O[C@H]1CC[C@H](N2CC(C)(C)C2=O)CC1 [Example 30, 4-{[trans-4-(3,3-dimethyl-2-oxoazetidin-1-yl)cyclohexyl]oxy}-5-[2-(4-fluoro-2,6-dimethylphenoxy)-5-(2-hydroxypropan-2-yl)phenyl]-1-methylpyridin-2(1H)-one]
2 | < 4.89 | Cc1cc(F)cc(C)c1Oc1ccc(C(C)(C)O)cc1-c1cn(C)c(=O)cc1O[C@H]1CC[C@H](N2C(=O)N[C@@H](C)C2=O)CC1 [Example 124, (5S)-3-[trans-4-({5-[2-(4-fluoro-2,6-dimethylphenoxy)-5-(2-hydroxypropan-2-yl)phenyl]-1-methyl-2-oxo-1,2-dihydropyridin-4-yl}oxy)cyclohexyl]-5-methylimidazolidine-2,4-dione]
3 | 5.54 | CC(=O)N[C@H]1CC[C@H](Nc2cc(=O)n(C)cc2-c2cc(C(C)(C)O)ccc2Oc2c(C)cc(F)cc2C)CC1 [Example 19, N-[trans-4-({5-[2-(4-fluoro-2,6-dimethylphenoxy)-5-(2-hydroxypropan-2-yl)phenyl]-1-methyl-2-oxo-1,2-dihydropyridin-4-yl}amino)cyclohexyl]acetamide]
4 | 5.10 | Cc1cc(F)cc(C)c1Oc1ccc(C(C)(C)O)cc1-c1cn(C)c(=O)cc1O[C@H]1CC[C@H](NC(=O)C23CCC(NC(=O)OC(C)(C)C)(C2)C3)CC1 (relative stereo) [Example 103, tert-butyl (4-{[trans-4-({5-[2-(4-fluoro-2,6-dimethylphenoxy)-5-(2-hydroxypropan-2-yl)phenyl]-1-methyl-2-oxo-1,2-dihydropyridin-4-yl}oxy)cyclohexyl]carbamoyl}bicyclo[2.1.1]hexan-1-yl)carbamate]
5 | 5.84 | COCC(=O)N[C@H]1CC[C@H](Oc2cc(=O)n(C)cc2-c2cc(C(C)(C)O)ccc2Oc2c(C)cc(F)cc2C)CC1 [Example 53, N-[trans-4-({5-[2-(4-fluoro-2,6-dimethylphenoxy)-5-(2-hydroxypropan-2-yl)phenyl]-1-methyl-2-oxo-1,2-dihydropyridin-4-yl}oxy)cyclohexyl]-2-methoxyacetamide]
6 | 5.71 | COC(=O)N[C@H]1CC[C@H](Oc2cc(=O)n(C)cc2-c2cc(C(C)(C)O)cnc2Oc2c(C)cc(F)cc2C)CC1 [Example 5, methyl (trans-4-{[2′-(4-fluoro-2,6-dimethylphenoxy)-5′-(2-hydroxypropan-2-yl)-1-methyl-6-oxo[1,6-dihydro[3,3′-bipyridine]]-4-yl]oxy}cyclohexyl)carbamate]
7 | 6.05 | Cc1cc(F)cc(C)c1Oc1ccc(C(C)(C)O)cc1-c1cn(C)c(=O)cc1O[C@H]1CC[C@H](N2CC(C)(C)CC2=O)CC1 [Example 120, 4-{[trans-4-(4,4-dimethyl-2-oxopyrrolidin-1-yl)cyclohexyl]oxy}-5-[2-(4-fluoro-2,6-dimethylphenoxy)-5-(2-hydroxypropan-2-yl)phenyl]-1-methylpyridin-2(1H)-one]
8 | 5.11 | CCNC(=O)[C@H]1CC[C@@H](Oc2cc(=O)n(C)cc2-c2cc(C(C)(C)O)ccc2Oc2c(C)cc(F)cc2C)CC1 [Example 76, cis-N-ethyl-4-({5-[2-(4-fluoro-2,6-dimethylphenoxy)-5-(2-hydroxypropan-2-yl)phenyl]-1-methyl-2-oxo-1,2-dihydropyridin-4-yl}oxy)cyclohexane-1-carboxamide]
9 | 5.68 | CNC(=O)N[C@H]1CC[C@H](Oc2cc(=O)n(C)cc2-c2cc(C(C)(C)O)ccc2Oc2c(C)cc(F)cc2C)CC1 [Example 128, N-[trans-4-({5-[2-(4-fluoro-2,6-dimethylphenoxy)-5-(2-hydroxypropan-2-yl)phenyl]-1-methyl-2-oxo-1,2-dihydropyridin-4-yl}oxy)cyclohexyl]-N′-methylurea]
10 | 6.03 | Cc1cc(F)cc(C)c1Oc1ccc(C(C)(C)O)cc1-c1cn(C)c(=O)cc1O[C@H]1CC[C@H](N2C(=O)N(C)C(C)(C)C2=O)CC1 [Example 142, 3-[trans-4-({5-[2-(4-fluoro-2,6-dimethylphenoxy)-5-(2-hydroxypropan-2-yl)phenyl]-1-methyl-2-oxo-1,2-dihydropyridin-4-yl}oxy)cyclohexyl]-1,5,5-trimethylimidazolidine-2,4-dione]
11 | < 4.89 | Cc1cc(F)cc(C)c1Oc1ccc(C(C)(C)O)cc1-c1cn(C)c(=O)cc1O[C@H]1CC[C@H](N2C(=O)CCC(C)(C)C2=O)CC1 [Example 89, 1-[trans-4-({5-[2-(4-fluoro-2,6-dimethylphenoxy)-5-(2-hydroxypropan-2-yl)phenyl]-1-methyl-2-oxo-1,2-dihydropyridin-4-yl}oxy)cyclohexyl]-3,3-dimethylpiperidine-2,6-dione]
12 | 5.92 | Cc1cc(F)cc(C)c1Oc1ccc(C(C)(C)O)cc1-c1cn(C)c(=O)cc1O[C@H]1CC[C@H](NC(=O)C2(C(N)=O)CC2)CC1 [Example 111, N-[trans-4-({5-[2-(4-fluoro-2,6-dimethylphenoxy)-5-(2-hydroxypropan-2-yl)phenyl]-1-methyl-2-oxo-1,2-dihydropyridin-4-yl}oxy)cyclohexyl]cyclopropane-1,1-dicarboxamide]
13 | 5.66 | Cc1cc(F)cc(C)c1Oc1ccc(C(C)(C)O)cc1-c1cn(C)c(=O)cc1O[C@H]1C[C@@H](C(=O)N2CCCC2)C1 [Example 96, 5-[2-(4-fluoro-2,6-dimethylphenoxy)-5-(2-hydroxypropan-2-yl)phenyl]-1-methyl-4-{[cis-3-(pyrrolidine-1-carbonyl)cyclobutyl]oxy}pyridin-2(1H)-one]
14 | 5.20 | Cc1cc(F)cc(C)c1Oc1ccc(C(C)(C)O)cc1-c1cn(C)c(=O)cc1O[C@H]1CC[C@H](N2C(=O)N[C@H](C(C)C)C2=O)CC1 [Example 131, (5R)-3-[trans-4-({5-[2-(4-fluoro-2,6-dimethylphenoxy)-5-(2-hydroxypropan-2-yl)phenyl]-1-methyl-2-oxo-1,2-dihydropyridin-4-yl}oxy)cyclohexyl]-5-(propan-2-yl)imidazolidine-2,4-dione]
15 | 6.04 | COC(=O)NC[C@H]1C[C@H](Oc2cc(=O)n(C)cc2-c2cc(C(C)(C)O)ccc2Oc2c(C)cc(F)cc2C)C1 [Example 7, methyl {[trans-3-({5-[2-(4-fluoro-2,6-dimethylphenoxy)-5-(2-hydroxypropan-2-yl)phenyl]-1-methyl-2-oxo-1,2-dihydropyridin-4-yl}oxy)cyclobutyl]methyl}carbamate]
16 | 5.55 | Cc1cc(F)cc(C)c1Oc1ccc(C(C)(C)O)cc1-c1cn(C)c(=O)cc1O[C@H]1CC[C@H](NC(=O)C2CC2)CC1 [Example 50, N-[trans-4-({5-[2-(4-fluoro-2,6-dimethylphenoxy)-5-(2-hydroxypropan-2-yl)phenyl]-1-methyl-2-oxo-1,2-dihydropyridin-4-yl}oxy)cyclohexyl]cyclopropanecarboxamide]
17 | 5.96 | COC(=O)N[C@H]1CC[C@H](Oc2cc(=O)n(C)cc2-c2cc(C(C)(C)O)ccc2Oc2c(C)cc(C(C)(C)O)cc2C)CC1 [Example 20, methyl {trans-4-[(5-{5-(2-hydroxypropan-2-yl)-2-[4-(2-hydroxypropan-2-yl)-2,6-dimethylphenoxy]phenyl}-1-methyl-2-oxo-1,2-dihydropyridin-4-yl)oxy]cyclohexyl}carbamate]
18 | < 4.89 | Cc1cc(F)cc(C)c1Oc1ccc(C(C)(C)O)cc1-c1cn(C)c(=O)cc1O[C@H]1CC[C@H](N2C(=O)CNC2=O)CC1 [Example 125, 3-[trans-4-({5-[2-(4-fluoro-2,6-dimethylphenoxy)-5-(2-hydroxypropan-2-yl)phenyl]-1-methyl-2-oxo-1,2-dihydropyridin-4-yl}oxy)cyclohexyl]imidazolidine-2,4-dione]
19 | 5.76 | Cc1cc(F)cc(C)c1Oc1ccc(C(C)(C)O)cc1-c1cn(C)c(=O)cc1O[C@H]1CC[C@H](NC(=O)C23CC(C2)C3)CC1 (relative stereo) [Example 86, N-[trans-4-({5-[2-(4-fluoro-2,6-dimethylphenoxy)-5-(2-hydroxypropan-2-yl)phenyl]-1-methyl-2-oxo-1,2-dihydropyridin-4-yl}oxy)cyclohexyl]bicyclo[1.1.1]pentane-1-carboxamide]
20 | < 4.89 | CC(=O)N[C@H]1CC[C@H](N(C)c2cc(=O)n(C)cc2-c2cc(C(C)(C)O)ccc2Oc2c(C)cc(F)cc2C)CC1 [Example 13, N-{trans-4-[{5-[2-(4-fluoro-2,6-dimethylphenoxy)-5-(2-hydroxypropan-2-yl)phenyl]-1-methyl-2-oxo-1,2-dihydropyridin-4-yl}(methyl)amino]cyclohexyl}acetamide]
